Patent US12478624B2, “Heterocyclic derivatives, pharmaceutical compositions and their use in the treatment or amelioration of cancer” (Tolremo Therapeutics AG, priority 2019, dated 2025)
pEC50: −log10 of the molar value.

What was measured:
A375 cells = test: Assay 1: A375 cells treated with S1152, S1008 and compound, immunofluorescence (sc-365823) signal; assay type: cell-based; details: 1 μM S1152 + 0.5 μM S1008, one day
Outline: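 A375 cells treated one day with 1 μM S1152, 0.5 μM S1008 and compound dose ranges in DMEM/10% FCS, then fixed, permeabilised and immunostained. Green signal normalised to nuclear counterstain (ethidium-type or DAPI), log ratio fitted by four-parameter regression for EC50.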

OPM-2 = test: Assay 2: multiple myeloma cellular efficacy, PrestoBlue cell proliferation/survival; assay type: cell-based; details: Homo sapiens, 96 h, OPM-2 cells, 4 days
Outline: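 Cells seeded at 10000/well and exposed to a compound dose range or vehicle for 4 days, then stained with PrestoBlue for 2 h at 37 °C. Fluorescence was background-subtracted and normalized to vehicle; EC50 came from a four-parameter variable-slope fit against log concentration.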

Structure (SMILES)	pEC50 (A375 cells)	pEC50 (OPM-2)
CC(=O)N1C[C@H](c2nc(Nc3ccnc(C)c3)cc(-c3cncc4c3ccn4C)n2)CC[C@@H]1C [Compound 00116, 1-((2S,5R)-2-methyl-5-(4-(1-methyl-1/7-pyrrolo[2,3-c]pyridin4-yl)-6-((2-methylpyridin-4-yl)amino)pyrimidin-2-yl)piperidin1-yl)ethan-1-one]	> 6.70	> 6.70
CC(=O)N1C[C@H](c2nc(Nc3ccnc(F)c3)cc(-c3cncc(O)c3)n2)CC[C@@H]1C [Compound 00117, 1-((2S,5R)-5-(4-((2-fluoropyridin-4-yl)amino)-6-(5-hydroxypyridin-3-yl)pyrimidin-2-yl)-2-methylpiperidin-1-yl)ethan-1-one]	5.00 to 6.00	5.00 to 6.00
CC(=O)N1C[C@H](c2nc(Nc3ccnc(F)c3)cc(-c3cncc4c3ccn4C)n2)CC[C@@H]1C [Compound 00118, 1-((2S,5R)-5-(4-((2-fluoropyridin-4-yl)amino)-6-(1-methyl-1H-pyrrolo[2,3-c]pyridin-4-yl)pyrimidin-2-yl)-2-methylpiperidin-1-yl)ethan-1-one]	> 6.70	> 6.70
COCCOc1cncc(-c2cc(Nc3ccnc(F)c3)nc([C@@H]3CC[C@H](C)N(C(C)=O)C3)n2)c1 [Compound 00119, 1-((2S,5R)-5-(4-((2-fluoropyridin-4-yl)amino)-6-(5-(2-methoxyethoxy)pyridin-3-yl)pyrimidin-2-yl)-2-methylpiperidin-1-yl)ethan-1-one]	> 6.70	> 6.70
CC(=O)N1C[C@H](c2nc(Nc3ccnc(C(F)(F)F)c3)cc(-c3cccnc3)n2)CC[C@@H]1C [Compound 00123, 1-((2S,5R)-2-methyl-5-(4-(pyridin-3-yl)-6-((2-(trifluoromethyl)pyridin-4-yl)amino)pyrimidin-2-yl)piperidin 1-yl)ethan-1-one]	> 6.70	> 6.70
CC(=O)N1C[C@H](c2nc(Nc3cncc(C(F)(F)F)c3)cc(-c3cccnc3)n2)CC[C@@H]1C [Compound 00124, 1-((2S,5R)-2-methyl-5-(4-(pyridin-3-yl)-6-((5-(trifluoromethyl)pyridin-3-yl)amino)pyrimidin-2-yl)piperidin 1-yl)ethan-1-one]	> 6.70	6.00 to 6.70
CC(=O)N1C[C@H](c2nc(Nc3ccnc(C)c3)cc(-c3cnccn3)n2)CC[C@@H]1C [Compound 000126]	> 6.70	> 6.70
CC(=O)N1C[C@H](c2nc(Nc3ccnc(C(F)F)c3)cc(-c3cnccn3)n2)CC[C@@H]1C [Compound 00130, 1-((2S,5R)-5-(4-((2-(difluoromethyl)pyridin-4-yl)amino)-6-(pyrazin-2-yl)pyrimidin-2-yl)-2-methylpiperidin-1-yl)ethan-1-one]	> 6.70	> 6.70
CC(=O)N1C[C@H](c2nc(Nc3ccnc(C)c3)cc(-c3cncc(C)n3)n2)CC[C@@H]1C [Compound 00131, 1-((2S,5R)-2-methyl-5-(4-(6-methylpyrazin-2-yl)-6-((2-methylpyridin-4-yl)amino)pyrimidin-2-yl)piperidin-1-yl)ethan-1-one]	> 6.70	> 6.70
COc1cncc(-c2cc(Nc3cncc(C)c3)nc([C@@H]3CC[C@H](C)N(C(C)=O)C3)n2)c1 [Compound 00132, 1-((2S,5R)-5-(4-(5-methoxypyridin-3-yl)-6-((5-methylpyridin-3-yl)amino)pyrimidin-2-yl)-2-methylpiperidin-1-yl)ethan-1-one]	> 6.70	> 6.70
CC(=O)N1C[C@H](c2nc(Nc3cc(C)nc(F)c3)cc(-c3cccnc3)n2)CC[C@@H]1C [Compound 00134, 1-((2S,5R)-5-(4-((2-fluoro-6-methylpyridin-4-yl)amino)-6-(pyridin-3-yl)pyrimidin-2-yl)-2-methylpiperidin-1-yl)ethan1-one]	> 6.70	> 6.70
CC(=O)Nc1cc(Nc2cc(-c3cccnc3)nc([C@@H]3CC[C@H](C)N(C(C)=O)C3)n2)ccn1 [Compound 00136, N-(4-((2-((3R,6S)-1-acetyl-6-methylpiperidin-3-yl)-6-(pyridin-3-yl)pyrimidin-4-yl)amino)pyridin-2-yl)acetamide]	5.00 to 6.00	5.00 to 6.00
CC(=O)Nc1cc(Nc2cc(-c3cnccn3)nc([C@@H]3CC[C@H](C)N(C(C)=O)C3)n2)ccn1 [Compound 00137, N-(4-((2-((3R,6S)-1-acetyl-6-methylpiperidin-3-yl)-6-(pyrazin-2-yl)pyrimidin-4-yl)amino)pyridin-2-yl)acetamide]	6.00 to 6.70	5.00 to 6.00
CC(=O)N1C[C@H](c2nc(Nc3cc(C)nc(C)c3)cc(-c3cccnc3)n2)CC[C@@H]1C [Compound 00138, 1-((2S,5R)-5-(4-((2,6-dimethylpyridin-4-yl)amino)-6-(pyridin-3-yl)pyrimidin-2-yl)-2-methylpiperidin-1-yl)ethan-1-one]	> 6.70	6.00 to 6.70
COc1cc(Nc2cc(-c3cccnc3)nc([C@@H]3CC[C@H](C)N(C(C)=O)C3)n2)ccn1 [Compound 00139, 1-((2S,5R)-5-(4-((2-methoxypyridin-4-yl)amino)-6-(pyridin-3-yl)pyrimidin-2-yl)-2-methylpiperidin-1-yl)ethan1-one]	> 6.70	> 6.70
COc1cc(Nc2cc(-c3cccnc3)nc([C@@H]3CC[C@H](C)N(C(C)=O)C3)n2)cc(C)n1 [Compound 00140, 1-((2S,5R)-5-(4-((2-methoxy-6-methylpyridin-4-yl)amino)-6-(pyridin-3-yl)pyrimidin-2-yl)-2-methylpiperidin-1-yl)ethan-1-one]	> 6.70	> 6.70
CC(=O)N1C[C@H](c2nc(Nc3cccc(-c4nnco4)c3)cc(-c3cccnc3)n2)CC[C@@H]1C [Compound 00141, 1-((2S,5R)-5-(4-((3-(1,3,4-oxadiazol-2-yl)phenyl)amino)-6-(pyridin-3-yl)pyrimidin-2-yl)-2-methylpiperidin-1-yl)ethan-1-one]	> 6.70	> 6.70
CC(=O)N1C[C@H](c2nc(Nc3cccc(-c4nnc(C)o4)c3)cc(-c3cccnc3)n2)CC[C@@H]1C [Compound 00142, 1-((2S,5R)-2-methyl-5-(4-((3-(5-methyl-1,3,4-oxadiazol-2-yl)phenyl)amino)-6-(pyridin-3-yl)pyrimidin-2-yl)piperidin-1-yl)ethan-1-one]	> 6.70	> 6.70
CC(=O)N1C[C@H](c2nc(Nc3ccnc(-c4cnn(C)c4)c3)cc(-c3cccnc3)n2)CC[C@@H]1C [Compound 00143, 1-((2S,5R)-2-methyl-5-(4-((2-(1-methyl-1H-pyrazol-4-yl)pyridin-4-yl)amino)-6-(pyridin-3-yl)pyrimidin-2-yl)piperidin-1-yl)ethan-1-one]	> 6.70	> 6.70
CC(=O)N1C[C@H](c2nc(Nc3cc(C)nc(C(F)F)c3)cc(-c3cccnc3)n2)CC[C@@H]1C [Compound 00144, 1-((2S,5R)-5-(4-((2-(difluoromethyl)-6-methylpyridin-4-yl)amino)-6-(pyridin-3-yl)pyrimidin-2-yl)-2-methylpiperidin-1-yl)ethan-1-one]	> 6.70	> 6.70
CC(=O)N1C[C@H](c2nc(Nc3cc(C)nc(C(F)F)c3)cc(-c3cnccn3)n2)CC[C@@H]1C [Compound 00145, 1-((2S,5R)-5-(4-((2-(difluoromethyl)-6-methylpyridin-4-yl)amino)-6-(pyrazin-2-yl)pyrimidin-2-yl)-2-methylpiperidin-1-yl)ethan-1-one]	> 6.70	> 6.70
CC(=O)N1C[C@H](c2nc(Nc3ccnc(C(C)(F)F)c3)cc(-c3cccnc3)n2)CC[C@@H]1C [Compound 00146, 1-((2S,5R)-5-(4-((2-(1,1-difluoroethyl)pyridin-4-yl)amino)-6-(pyridin-3-yl)pyrimidin-2-yl)-2-methylpiperidin-1-yl)ethan-1-one]	> 6.70	6.00 to 6.70
CC(=O)N1C[C@H](c2nc(Nc3ccc4oc(C)nc4c3)cc(-c3cccnc3)n2)CC[C@@H]1C [Compound 00147, 1-((2S,5R)-2-methyl-5-(4-((2-methylbenzo[d]oxazol-5-yl)amino)-6-(pyridin-3-yl)pyrimidin-2-yl)piperidin-1-yl)ethan-1-one]	> 6.70	> 6.70
CC(=O)Nc1cccc(Nc2cc(-c3cccnc3)nc([C@@H]3CC[C@H](C)N(C(C)=O)C3)n2)n1 [Compound 00148, N-(6-((2-((3R,6S)-1-acetyl-6-methylpiperidin-3-yl)-6-(pyridin-3-yl)pyrimidin-4-yl)amino)pyridin-2-yl)acetamide]	> 6.70	> 6.70
COc1cc(Nc2cc(-c3cnccn3)nc([C@@H]3CC[C@H](C)N(C(C)=O)C3)n2)cc(C)n1 [Compound 00150, 1-((2S,5R)-5-(4-((2-methoxy-6-methylpyridin-4-yl)amino)-6-(pyrazin-2-yl)pyrimidin-2-yl)-2-methylpiperidin-1-yl)ethan-1-one]	> 6.70	> 6.70
CC(=O)N1C[C@H](c2nc(Nc3cc(C)ncn3)cc(-c3cnccn3)n2)CC[C@@H]1C [Compound 00151, 1-((2S,5R)-2-methyl-5-(4-((6-methylpyrimidin-4-yl)amino)-6-(pyrazin-2-yl)pyrimidin-2-yl)piperidin-1-yl)ethan-1-one]	6.00 to 6.70	6.00 to 6.70
CC(=O)N1C[C@H](c2nc(Nc3cc(C)nc(-c4cnn(C)c4)c3)cc(-c3cnccn3)n2)CC[C@@H]1C [Compound 00154, 1-((2S,5R)-2-methyl-5-(4-((2-methyl-6-(1-methyl-1H-pyrazol-4-yl)pyridin-4-yl)amino)-6-(pyrazin2-yl)pyrimidin-2-yl)piperidin-1-yl)ethan-1-one]	> 6.70	6.00 to 6.70
